Assay results as given in patent US20100190788A1, “Amide derivatives as kinase inhitors” (priority 2005, published 2010).
Where a name gives a salt, the structure may show the parent alone.

Each compound was assayed against T1, human ROCKα/ROCKII mix (Homo sapiens, UniProt O75116) (assay: ROCK inhibition, fluorescence polarization (FP) assay with ROCK IMAP Kit). Details: Table 1, compounds of Formula IV20.
T1 construct: purchased Upstate Biotechnology 14-451
Format: biochemical

T1 sequence (O75116 whole entry): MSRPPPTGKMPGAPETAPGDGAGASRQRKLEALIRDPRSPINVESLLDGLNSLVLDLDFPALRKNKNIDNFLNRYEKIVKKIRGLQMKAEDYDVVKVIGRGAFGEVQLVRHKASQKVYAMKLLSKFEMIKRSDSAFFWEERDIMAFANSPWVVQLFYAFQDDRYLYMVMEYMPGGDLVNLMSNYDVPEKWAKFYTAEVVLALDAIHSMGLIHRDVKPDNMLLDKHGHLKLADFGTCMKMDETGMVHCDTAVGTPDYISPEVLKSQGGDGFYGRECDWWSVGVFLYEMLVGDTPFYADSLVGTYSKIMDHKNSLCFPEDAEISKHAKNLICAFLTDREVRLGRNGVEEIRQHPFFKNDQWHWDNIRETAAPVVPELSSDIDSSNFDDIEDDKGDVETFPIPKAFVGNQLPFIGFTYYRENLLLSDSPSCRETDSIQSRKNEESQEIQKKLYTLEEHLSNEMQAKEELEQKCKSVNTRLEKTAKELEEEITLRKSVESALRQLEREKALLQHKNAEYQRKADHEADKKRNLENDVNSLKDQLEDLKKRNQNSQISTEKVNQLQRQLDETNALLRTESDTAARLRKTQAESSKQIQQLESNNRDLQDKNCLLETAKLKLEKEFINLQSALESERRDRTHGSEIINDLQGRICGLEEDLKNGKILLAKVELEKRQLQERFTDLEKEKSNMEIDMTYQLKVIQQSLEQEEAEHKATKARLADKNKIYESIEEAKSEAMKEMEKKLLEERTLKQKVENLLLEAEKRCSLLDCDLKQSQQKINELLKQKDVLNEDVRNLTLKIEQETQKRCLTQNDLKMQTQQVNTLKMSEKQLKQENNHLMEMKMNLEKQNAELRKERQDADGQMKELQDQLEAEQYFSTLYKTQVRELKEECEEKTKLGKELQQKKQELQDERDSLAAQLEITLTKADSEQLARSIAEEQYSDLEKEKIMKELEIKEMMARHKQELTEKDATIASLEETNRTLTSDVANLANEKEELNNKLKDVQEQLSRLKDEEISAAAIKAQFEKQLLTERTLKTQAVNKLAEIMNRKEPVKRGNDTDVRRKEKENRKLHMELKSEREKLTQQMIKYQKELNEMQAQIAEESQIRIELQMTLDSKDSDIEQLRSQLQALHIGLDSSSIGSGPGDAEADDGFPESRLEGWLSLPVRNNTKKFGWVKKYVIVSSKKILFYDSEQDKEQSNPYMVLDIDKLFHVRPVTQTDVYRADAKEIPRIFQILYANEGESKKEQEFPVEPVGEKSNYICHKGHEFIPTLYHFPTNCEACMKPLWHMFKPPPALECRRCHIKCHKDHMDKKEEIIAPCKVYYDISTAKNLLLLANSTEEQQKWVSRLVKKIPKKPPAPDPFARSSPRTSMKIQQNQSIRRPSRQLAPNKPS

Row | Compound | IC50 [µM]
1 | NC(C(=O)N1CCc2ccccc2C1)c1ccc(C(=O)Nc2ccncc2)cc1 (stereo not drawn) [Compound 13, 4-[1-amino-2-(3,4-dihydro-1H-isoquinolin-2-yl)-2-oxo-ethyl]-N-pyridin-4-yl-benzamide] | < 0.5
2 | NC(C(=O)N1CCN(CCO)CC1)c1ccc(C(=O)Nc2ccncc2)cc1 (stereo not drawn) [Compound 52, 4-{1-amino-2-[4-(2-hydroxy-ethyl)-piperazin-1-yl]-2-oxo-ethyl}-N-pyridin-4-yl-benzamide] | 0.5 to 5
3 | NC(C(=O)NC1CCN(Cc2ccccc2)CC1)c1ccc(C(=O)Nc2ccncc2)cc1 (stereo not drawn) [Compound 51, 4-{amino-[1-benzyl-piperidin-4-ylcarbamoyl]-methyl}-N-pyridin-4-yl-benzamide] | 0.5 to 5
4 | NC(C(=O)N1CCCC1c1cccc(F)c1)c1ccc(C(=O)Nc2ccncc2)cc1 (stereo not drawn) [Compound 83, 4-{1-amino-2-[2-(3-fluoro-phenyl)-pyrrolidin-1-yl]-2-oxo-ethyl}-N-pyridin-4-yl-benzamide] | < 0.5
5 | NC(C(=O)N1CCN(Cc2ccc(F)cc2)CC1)c1ccc(C(=O)Nc2ccncc2)cc1 (stereo not drawn) [Compound 49, 4-{1-amino-2-[4-(4-fluoro-benzyl)-piperazin-1-yl]-2-oxo-ethyl}-N-pyridin-4-yl-benzamide] | 0.5 to 5
6 | NC(C(=O)N1CCCC(CO)C1)c1ccc(C(=O)Nc2ccncc2)cc1 (stereo not drawn) [Compound 36, 4-[1-amino-2-(3-hydroxymethyl-piperidin-1-yl)-2-oxo-ethyl]-N-pyridin-4-yl-benzamide] | 0.5 to 5
7 | CC1CCC(NC(=O)C(N)c2ccc(C(=O)Nc3ccncc3)cc2)CC1 (stereo not drawn) [Compound 33, 4-[amino-(4-methyl-cyclohexylcarbamoyl)-methyl]-N-pyridin-4-yl-benzamide] | 0.5 to 5
8 | NC(C(=O)NCc1ccncc1)c1ccc(C(=O)Nc2ccncc2)cc1 (stereo not drawn) [Compound 11, 4-{amino-[(pyridin-4-ylmethyl)-carbamoyl]-methyl}-N-pyridin-4-yl-benzamide] | 0.5 to 5
9 | COc1ccc(CN2CCN(C(=O)C(N)c3ccc(C(=O)Nc4ccncc4)cc3)CC2)cc1 (stereo not drawn) [Compound 50, 4-{1-amino-2-[4-(4-methoxy-benzyl)-piperazin-1-yl]-2-oxo-ethyl}-N-pyridin-4-yl-benzamide] | 0.5 to 5
10 | NC(C(=O)NCc1ccco1)c1ccc(C(=O)Nc2ccncc2)cc1 (stereo not drawn) [Compound 12, 4-{amino-[(furan-2-ylmethyl)-carbamoyl]-methyl}-N-pyridin-4-yl-benzamide] | < 0.5

Same assay, conditions: Table 2, compounds of Formula V20

Row | Compound | IC50 [µM]
11 | NC(CNS(=O)(=O)c1cccc2ccccc12)c1ccc(C(=O)Nc2ccncc2)cc1 (stereo not drawn) [Compound 77, 4-[1-amino-2-(naphthalene-1-sulfonylamino)-ethyl]-N-pyridin-4-yl-benzamide] | < 0.5
12 | CCCCCCCCS(=O)(=O)NCC(N)c1ccc(C(=O)Nc2ccncc2)cc1 (stereo not drawn) [Compound 59, 4-[1-amino-2-(octane-1-sulfonylamino)-ethyl]-N-pyridin-4-yl-benzamide] | 0.5 to 5
13 | Cc1ccccc1S(=O)(=O)NCC(N)c1ccc(C(=O)Nc2ccncc2)cc1 (stereo not drawn) [Compound 64, 4-[1-amino-2-(2-methyl-benzenesulfonylamino)-ethyl]-N-pyridin-4-yl-benzamide] | < 0.5
14 | NC(CNS(=O)(=O)c1ccccc1)c1ccc(C(=O)Nc2ccncc2)cc1 (stereo not drawn) [Compound 61, 4-(1-amino-2-benzenesulfonylamino-ethyl)-N-pyridin-4-yl-benzamide] | < 0.5
15 | NC(CNS(=O)(=O)c1cccc(-c2ccccc2)c1)c1ccc(C(=O)Nc2ccncc2)cc1 (stereo not drawn) [Compound 75] | 0.5 to 5
16 | NC(CNS(=O)(=O)c1cccc2nonc12)c1ccc(C(=O)Nc2ccncc2)cc1 (stereo not drawn) [Compound 81, 4-[1-amino-2-(benzo[1,2,5]-oxadiazole-4-sulfonylamino)-ethyl]-N-pyridin-4-yl-benzamide] | < 0.5
17 | NC(CNS(=O)(=O)c1cccc2nsnc12)c1ccc(C(=O)Nc2ccncc2)cc1 (stereo not drawn) [Compound 82, 4-[1-amino-2-(benzo[1,2,5]-thiadiazole-4-sulfonylamino)-ethyl]-N-pyridin-4-yl-benzamide] | < 0.5
18 | Cc1nn(C)c(Cl)c1S(=O)(=O)NCC(N)c1ccc(C(=O)Nc2ccncc2)cc1 (stereo not drawn) [Compound 80, 4-[1-amino-2-(5-chloro-1,3-dimethyl-1H-pyrazole-4-sulfonylamino)-ethyl]-N-pyridin-4-yl-benzamide] | 0.5 to 5
19 | NC(CNS(=O)(=O)c1ccc(Cl)cc1)c1ccc(C(=O)Nc2ccncc2)cc1 (stereo not drawn) [Compound 67, 4-[1-amino-2-(4-chloro-benzenesulfonylamino)-ethyl]-N-pyridin-4-yl-benzamide] | < 0.5

Same assay, conditions: Table 3, compounds of Formula III20

Row | Compound | IC50 [µM]
20 | NC(CC(=O)N1CCCC2CCCCC21)c1ccc(C(=O)Nc2ccncc2)cc1 (stereo not drawn) [Compound 110, 4-[1-amino-3-(octahydro-quinolin-1-yl)-3-oxo-propyl]-N-pyridin-4-yl-benzamide] | < 0.5
21 | COC(=O)c1ccc(C2CCCCN2C(=O)CC(N)c2ccc(C(=O)Nc3ccncc3)cc2)cc1 (stereo not drawn) [Compound 127, 4(1-{3-amino-3-[4-(pyridin-4-ylcarbamoyl)-phenyl]-propionyl}-piperidin-2-yl)-benzoic acid methyl ester] | < 0.5
22 | NC(CC(=O)N1CCCC(CO)C1)c1ccc(C(=O)Nc2ccncc2)cc1 (stereo not drawn) [Compound 109, 4-[1-amino-3-(3-hydroxymethyl-piperidin-1-yl)-3-oxo-propyl]-N-pyridin-4-yl-benzamide] | < 0.5
23 | NC(CC(=O)N1CCN(Cc2ccc(F)cc2)CC1)c1ccc(C(=O)Nc2ccncc2)cc1 (stereo not drawn) [Compound 123, 4-{1-amino-3-[4-(4-fluoro-benzyl)-piperazin-1-yl]-3-oxo-propyl}-N-pyridin-4-yl-benzamide] | < 0.5
24 | NC(CC(=O)N1CCN(C(=O)c2ccco2)CC1)c1ccc(C(=O)Nc2ccncc2)cc1 (stereo not drawn) [Compound 124, 4-{1-amino-3-[4-(furan-2-carbonyl)-piperazin-1-yl]-3-oxo-propyl}-N-pyridin-4-yl-benzamide] | < 0.5
25 | NC(CC(=O)N1CCCC1c1cccc(F)c1)c1ccc(C(=O)Nc2ccncc2)cc1 (stereo not drawn) [Compound 87, 4-{1-amino-3-[2-(3-fluoro-phenyl)-pyrrolidin-1-yl]-3-oxo-propyl}-N-pyridin-4-yl-benzamide] | < 0.5
26 | NC(CC(=O)N1CCCC1c1ccc(F)cc1F)c1ccc(C(=O)Nc2ccncc2)cc1 (stereo not drawn) [Compound 89, 4-{1-amino-3-[2-(2,4-difluoro-phenyl)-pyrrolidin-1-yl]-3-oxo-propyl}-N-pyridin-4-yl-benzamide] | < 0.5
27 | NC(CC(=O)N1CCc2c([nH]c3ccccc23)C1)c1ccc(C(=O)Nc2ccncc2)cc1 (stereo not drawn) [Compound 128, 4-[1-amino-3-oxo-(1,3,4,9-tetrahydro-β-carbolin-2-yl)-propyl]-N-pyridin-4-yl-benzamide] | < 0.5
28 | NC(CC(=O)N1CCC(c2nc3ccccc3o2)CC1)c1ccc(C(=O)Nc2ccncc2)cc1 (stereo not drawn) [Compound 120, 4-[1-amino-3-(4-benzooxazol-2-yl-piperidin-1-yl)-3-oxo-propyl]-N-pyridin-4-yl-benzamide] | < 0.5
29 | NC(CC(=O)N1CCC(O)(c2ccccc2)CC1)c1ccc(C(=O)Nc2ccncc2)cc1 (stereo not drawn) [Compound 111, 4-[1-amino-3-(4-hydroxy-4-phenyl-piperidin-1-yl)-3-oxo-propyl]-N-pyridin-4-yl-benzamide] | < 0.5
30 | COc1ccc(C2c3[nH]c4ccccc4c3CCN2C(=O)CC(N)c2ccc(C(=O)Nc3ccncc3)cc2)cc1Br (stereo not drawn) [Compound 130, 4-{1-amino-3-[1-(3-bromo-4-methoxy-phenyl)-1,3,4,9-tetrahydro-β-carbolin-2-yl]-3-oxo-propyl}-N-pyridin-4-yl-benzamide] | 0.5 to 5
31 | NC(CC(=O)N1CC=C(c2ccc(F)cc2)CC1)c1ccc(C(=O)Nc2ccncc2)cc1 (stereo not drawn) [Compound 118, 4-{1-amino-3[4-(4-fluoro-phenyl)-3,6-dihydro-2H-pyridin-1-yl]-3-oxo-propyl}-N-pyridin-4-yl-benzamide] | < 0.5
32 | NC(CC(=O)N1CCOCC1)c1ccc(C(=O)Nc2ccncc2)cc1 (stereo not drawn) [Compound 112, 4-(1-amino-3-morpholin-4-yl-3-oxo-propyl)-N-pyridin-4-yl-benzamide] | < 0.5
33 | NC(CC(=O)N1CCc2c(Cl)cccc2C1)c1ccc(C(=O)Nc2ccncc2)cc1 (stereo not drawn) [Compound 102, 4-[1-amino-3-(5-chloro-3,4-dihydro-1H-isoquinolin-2-yl)-3-oxo-propyl]-N-pyridin-4-yl-benzamide] | < 0.5
34 | NC(CC(=O)N1CCC(Cc2ccccc2)CC1)c1ccc(C(=O)Nc2ccncc2)cc1 (stereo not drawn) [Compound 119, 4-[1-amino-3-(4-benzyl-piperidin-1-yl)-3-oxo-propyl]-N-pyridin-4-yl-benzamide] | < 0.5
35 | COC(=O)c1ccc2c(c1)CCN(C(=O)CC(N)c1ccc(C(=O)Nc3ccncc3)cc1)C2 (stereo not drawn) [Compound 126, 2-{3-amino-3-[4-(pyridin-4-ylcarbamoyl)-phenyl]-propionyl}-1,2,3,4-tetrahydro-isoquinoline-6-carboxylic acid methyl ester] | 0.5 to 5

Same assay, conditions: Table 4, compounds 132 to 156

Row | Compound | IC50 [µM]
36 | NC(c1ccc(C(=O)Nc2ccncc2)cc1)C1CCCN1S(=O)(=O)c1ccccc1Cl (stereo not drawn) [Compound 133, 4-{Amino-[1-(2-chloro-benzenesulfonyl)-pyrrolidin-2-yl]-methyl}-N-pyridin-4-yl-benzamide dihydrochloric acid salt] | 0.5 to 5
37 | NC(c1ccc(C(=O)Nc2ccncc2)cc1)C1CCCN1S(=O)(=O)c1ccccc1F (stereo not drawn) [Compound 136, 4-{Amino-[1-(2-fluoro-benzenesulfonyl)-pyrrolidin-2-yl]-methyl}-N-pyridin-4-yl-benzamide dihydrochloric acid salt] | 0.5 to 5
38 | COc1ccc(S(=O)(=O)N(C)C[C@H](N)c2ccc(C(=O)Nc3ccncc3)cc2)cc1 [Compound 153, 4-{(R)1-Amino-2-[(4-methoxy-benzenesulfonyl)-methyl-amino]-ethyl}-N-pyridin-4-yl-benzamide dihydrochloric acid salt] | 5 to 50
39 | CN(CC(N)c1ccc(C(=O)Nc2ccncc2)cc1)S(=O)(=O)c1ccc(F)cc1 (stereo not drawn) [Compound 140, 4-{1-Amino-2-[(4-fluoro-benzenesulfonyl)-methyl-amino]-ethyl}-N-pyridin-4-yl-benzamide dihydrochloric acid salt] | 0.5 to 5
